Experiments:
male Wistar rats = assay: Effect on bicarbonate secretion into bile in rats after oral dosing; assay type: in vivo, rat
Protocol: The effect of Compound A (13,14-dihydro-15-keto-16,16-difluoro-18(S)-methyl-PGE1) on Gastrointestinal bicarbonate secretion was studied.
Seven weeks old male Wistar rats were used in this study. Compound A at a dose of 100 μg/kg was administered orally to the animals three times daily for 7 days. Control animals received an equal volume of the vehicle (distilled water containing 0.01% polysorbate 80 and 0.5% ethanol). On the next morning of the final administration (about 17 hours after the final administration), a polyethylene catheter (PE10, Becton Dickinson and Company) was inserted into the common bile duct of the animal under ether anesthesia. The animals were placed into a Borrmann's cage individually and allowed to recover from the anesthesia for 1 hour. Bile was collected for 1 hour between 1 and 2 hours after inserting the catheter. The amount of bicarbonate (HCO3^−) in the bile was measured with an automated pH/blood gas analyzer (model 170, Ciba Corning Diagnostics Corp.).

[1] = tested on: PG receptors such as EP and FP receptors; details: Journal of Ocular Pharmacology and Therapeutics 17(5), 433-441, 2001; cited from earlier work

CC[C@H](C)CC(F)(F)C(=O)CC[C@H]1[C@H](O)CC(=O)[C@@H]1CCCCCCC(=O)O [Compound A, 13,14-dihydro-15-keto-16,16-difluoro-18(S)-methyl-PGE1]
amount of bicarbonate secreted into the bile compared with the control group (male Wistar rats; 100 μg/kg orally three times daily for 7 days, Wistar rats): increased significantly | Bicarbonate secretion Mean ± S.E. (male Wistar rats; 100 μg/kg p.o., TID for 7 days, bile collected for 1 hour, about 17 hours after the final administration, n=7, *p < 0.05 compared with control group (control 10.16 ± 0.81)): 13.33 ± 1.00* μmol/hr/100 g body weight

CCCCCCCC(=O)CC[C@@H]1[C@@H](C/C=C\CCCC(=O)OC(C)C)[C@@H](O)C[C@H]1O [unoprostone isopropyl]
affinity for PG receptors such as EP and FP receptors [1]: does not have affinity
